The record followed here is patent publication US12404269B2, “Aminoquinazolinone and aminoisoquinolinone derivatives and application thereof” (ZHEJIANG UNIVERSITY, priority 2018, dated 2025).

In assay [1] the test system is KPL4 (PIK3CA mut). Put plainly: Tumor cell proliferation, CCK8 method, KPL4. It is filed as cell-based. Conditions: CCK8, KPL4; read-out: KPL4 (PIK3CA mut) proliferation IC50. How it is done:
(§1) The IC50 value was calculated using Graphpad Prism V5.0 software.

Assay [2] addresses T1, PI3Kδ (Homo sapiens, UniProt O00329).
T1 construct: purchased Carna Bioscience
Nature of the assay: PI3Kδ molecular activity test (ADP-GLO). It is filed as biochemical. To be noted: recombinant protein. On the procedure:
(§2) Instrument: ELISA Reader Envision™ (PerkinElmer, USA)
(§3) Materials: Human recombinant PI3K and PI3Kδ proteins, purchased from Carna Bioscience; ADP-GLO kit, purchased from Promega.
(§4) Take the PI3Kα Molecular Activity Test as an Example to Describe the Text Method of the PI3K Subtypes
(§5) PI3K-α recombinant protein and substrate ATP were diluted with kinase reaction buffer (50 mM Tris-HCl, pH 7.4, 2.1 mM DTT, 0.05% Tween-20, 10 mM MgCl2). […] The specific reaction system was 2% of DMSO, 0.8 ng/μL PI3K-α, and 100 μM ATP, the positive compound control groups and control wells were set, and there were 3 multiple-wells for each concentration of each sample. After incubating for 2 hours at room temperature, ADP-GLO Reagent and Kinase Detection Reagent were added respectively, and then Envision™ was used to detect the […] readings. The activity rate of the samples were calculated by the sample readings, and the calculation formula was: activity rate=(ODcompound−ODcontrol)/(ODDMSO−ODcontro) ×100%.

The subject of assay [3] is MCF7 (PIK3CA mut). Put plainly: Tumor cell proliferation, CCK8 method, MCF7. It is filed as cell-based, human. To be noted: CCK8, MCF7, read-out: MCF7 (PIK3CA mut) proliferation IC50. How it is done: as §1
Assay [4] deals with T2, PI3Kα (Homo sapiens, UniProt P42336).
T2 construct: purchased Carna Bioscience
Nature of the assay: PI3Kα molecular activity test (ADP-GLO). It is filed as biochemical. Conditions: for Selectivity (PI3Kδ IC50/PI3KαIC50): PI3Kδ IC50/PI3Kα IC50; for IC50: recombinant protein, 100 μM ATP, 2 hours at room temperature. On the procedure: as §2, §3, §4, §5

Assay [5] concerns SW48 (PIK3CA mut). Nature of the assay: Tumor cell proliferation, CCK8 method, SW48. Type of assay: cell-based. To be noted: CCK8, SW48, read-out: SW48 (PIK3CA mut) proliferation IC50. How it is done:
as §1

Assay [6] has as its system ZR-75-1 (PTEN loss). Put plainly: Tumor cell proliferation, CCK8 method, ZR-75-1. It is filed as cell-based. Conditions: CCK8, ZR-75-1. How it is done: as §1

SMILES strings stand for the structures. Like-named read-outs stand apart in the source and are kept apart here.

T2 sequence (P42336 whole entry): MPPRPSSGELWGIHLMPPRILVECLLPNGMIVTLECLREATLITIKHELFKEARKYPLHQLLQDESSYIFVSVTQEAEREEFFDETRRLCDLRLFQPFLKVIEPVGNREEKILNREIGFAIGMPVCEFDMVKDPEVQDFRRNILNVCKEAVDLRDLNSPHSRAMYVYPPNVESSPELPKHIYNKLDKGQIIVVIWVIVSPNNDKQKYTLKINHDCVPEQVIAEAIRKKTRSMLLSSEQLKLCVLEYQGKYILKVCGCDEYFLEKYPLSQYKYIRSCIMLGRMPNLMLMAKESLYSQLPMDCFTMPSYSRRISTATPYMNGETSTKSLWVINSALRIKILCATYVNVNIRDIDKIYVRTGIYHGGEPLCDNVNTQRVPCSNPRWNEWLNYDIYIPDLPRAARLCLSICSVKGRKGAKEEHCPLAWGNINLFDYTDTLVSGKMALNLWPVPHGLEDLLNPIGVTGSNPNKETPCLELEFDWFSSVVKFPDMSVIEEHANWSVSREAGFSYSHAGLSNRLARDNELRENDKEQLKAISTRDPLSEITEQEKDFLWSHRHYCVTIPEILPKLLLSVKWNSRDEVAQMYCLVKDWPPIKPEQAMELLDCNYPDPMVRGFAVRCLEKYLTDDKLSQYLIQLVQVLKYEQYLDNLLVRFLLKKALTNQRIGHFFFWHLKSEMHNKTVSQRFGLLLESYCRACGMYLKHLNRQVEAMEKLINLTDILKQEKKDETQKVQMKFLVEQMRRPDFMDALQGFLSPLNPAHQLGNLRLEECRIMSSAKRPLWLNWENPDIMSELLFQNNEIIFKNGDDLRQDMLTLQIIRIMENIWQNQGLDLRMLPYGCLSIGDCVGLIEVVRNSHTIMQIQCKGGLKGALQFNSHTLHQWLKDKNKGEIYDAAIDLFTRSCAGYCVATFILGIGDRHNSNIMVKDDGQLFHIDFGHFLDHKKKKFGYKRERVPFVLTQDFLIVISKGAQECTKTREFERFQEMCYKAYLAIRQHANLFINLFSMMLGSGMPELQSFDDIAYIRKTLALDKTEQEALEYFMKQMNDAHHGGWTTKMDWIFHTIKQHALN
T2 sequence (P27986 whole entry partner): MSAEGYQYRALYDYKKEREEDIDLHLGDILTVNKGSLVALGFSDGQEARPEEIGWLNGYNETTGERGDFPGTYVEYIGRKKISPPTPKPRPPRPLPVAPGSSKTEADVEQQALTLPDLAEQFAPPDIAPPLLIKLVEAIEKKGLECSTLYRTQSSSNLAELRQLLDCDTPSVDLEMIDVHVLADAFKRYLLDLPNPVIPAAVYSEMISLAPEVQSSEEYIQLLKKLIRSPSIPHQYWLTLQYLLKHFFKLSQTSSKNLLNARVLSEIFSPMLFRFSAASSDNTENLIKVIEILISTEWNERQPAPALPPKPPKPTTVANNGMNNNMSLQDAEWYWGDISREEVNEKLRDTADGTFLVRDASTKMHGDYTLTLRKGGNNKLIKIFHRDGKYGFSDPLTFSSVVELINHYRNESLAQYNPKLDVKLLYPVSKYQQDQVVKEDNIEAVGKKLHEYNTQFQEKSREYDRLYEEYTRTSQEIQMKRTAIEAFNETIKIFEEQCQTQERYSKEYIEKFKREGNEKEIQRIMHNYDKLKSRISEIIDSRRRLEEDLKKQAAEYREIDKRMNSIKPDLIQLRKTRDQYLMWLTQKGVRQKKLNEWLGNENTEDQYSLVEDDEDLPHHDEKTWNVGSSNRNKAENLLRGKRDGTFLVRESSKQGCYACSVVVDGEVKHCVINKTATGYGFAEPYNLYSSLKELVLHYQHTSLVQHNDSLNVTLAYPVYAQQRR
T1 sequence (O00329 whole entry): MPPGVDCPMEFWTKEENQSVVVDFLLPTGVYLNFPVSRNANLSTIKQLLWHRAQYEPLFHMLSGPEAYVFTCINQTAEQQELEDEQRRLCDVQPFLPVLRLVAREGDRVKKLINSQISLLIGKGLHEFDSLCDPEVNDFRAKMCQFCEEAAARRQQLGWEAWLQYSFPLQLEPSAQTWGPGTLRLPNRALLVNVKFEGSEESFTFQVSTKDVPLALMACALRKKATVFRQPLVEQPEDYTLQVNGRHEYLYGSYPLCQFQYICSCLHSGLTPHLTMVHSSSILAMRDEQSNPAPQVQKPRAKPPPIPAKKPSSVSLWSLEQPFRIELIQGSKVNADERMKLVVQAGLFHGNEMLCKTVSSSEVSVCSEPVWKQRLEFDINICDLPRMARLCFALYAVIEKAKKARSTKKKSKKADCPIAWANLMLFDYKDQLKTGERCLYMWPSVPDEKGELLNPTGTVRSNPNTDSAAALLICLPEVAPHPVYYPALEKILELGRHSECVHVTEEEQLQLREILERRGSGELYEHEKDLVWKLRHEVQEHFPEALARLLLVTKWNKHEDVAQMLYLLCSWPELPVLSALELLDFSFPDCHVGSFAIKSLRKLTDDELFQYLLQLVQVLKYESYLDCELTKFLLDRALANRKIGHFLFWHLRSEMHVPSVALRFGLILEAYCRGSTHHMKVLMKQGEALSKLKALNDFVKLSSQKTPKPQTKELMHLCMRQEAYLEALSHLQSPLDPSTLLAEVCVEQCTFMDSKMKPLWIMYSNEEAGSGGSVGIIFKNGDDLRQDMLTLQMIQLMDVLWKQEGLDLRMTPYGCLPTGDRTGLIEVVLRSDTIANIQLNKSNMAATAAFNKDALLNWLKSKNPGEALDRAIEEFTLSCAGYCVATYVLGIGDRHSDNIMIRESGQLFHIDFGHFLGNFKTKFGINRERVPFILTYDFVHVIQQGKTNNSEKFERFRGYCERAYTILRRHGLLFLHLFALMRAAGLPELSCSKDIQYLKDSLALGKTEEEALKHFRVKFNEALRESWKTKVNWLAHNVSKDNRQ
T1 sequence (P27986 whole entry partner): as the sequence (P27986 whole entry partner) above

As for `COc1c(OCCNS(C)(=O)=O)ccc2c(=O)n(C)c(NC(=O)c3cnc(N)nc3)nc12` [8a-30, 2-amino-N-(8-methoxy-3-methyl-7-(2-(methylsulfonamido)ethoxy)-4-oxo-3,4-dihydroquinazolin-2-yl) pyrimidine-5-carboxamide], the IC50 was 20 to 200 nM in assay [1]; 20 to 200 nM in assay [2]; below 20 nM in assay [3] (Homo sapiens); below 20 nM in assay [4]; 20 to 200 nM in assay [5] (Homo sapiens); 200 to 1000 nM in assay [6] (Homo sapiens). The “Selectivity (PI3Kδ IC50/PI3KαIC50)” value in assay [4] is recorded as “II (“II” represents 5-10 times)”.

For `COc1c(OC[C@@H](O)CN2CCOCC2)ccc2c(=O)n(C)c(NC(=O)c3ccc(N)nc3)nc12` [8a-38, (S)-6-amino-N-(7-(2-hydroxy-3-morpholinopropoxy)-8-methoxy-3-methyl-4-oxo-3,4-dihydroouinazolin-2-yl) nicotinamide], the IC50 was 20 to 200 nM in assay [1]; 20 to 200 nM in assay [2]; below 20 nM in assay [3] (Homo sapiens); below 20 nM in assay [4]; 20 to 200 nM in assay [5] (Homo sapiens); 200 to 1000 nM in assay [6] (Homo sapiens). Moreover, the “Selectivity (PI3Kδ IC50/PI3KαIC50)” value in assay [4] is given as “II (“II” represents 5-10 times)”.

As for `COc1c(OC[C@H](O)CN2CCOCC2)ccc2c(=O)n(C)c(NC(=O)c3ccc(N)nc3)nc12` [8a-39, (R)-6-amino-N-(7-(2-hydroxy-3-morpholinopropoxy)-8-methoxy-3-methyl-4-oxo-3,4-dihydroquinazolin-2-yl) nicotinamide], the IC50 is 20 to 200 nM in assay [1]; 20 to 200 nM in assay [2]; below 20 nM in assay [3] (Homo sapiens); below 20 nM in assay [4]; 20 to 200 nM in assay [5] (Homo sapiens); 200 to 1000 nM in assay [6] (Homo sapiens). In addition, the “Selectivity (PI3Kδ IC50/PI3KαIC50)” value in assay [4] is listed as “II (“II” represents 5-10 times)”.

For `COc1c(OCCNS(C)(=O)=O)ccc2c(=O)n(C)c(NC(=O)c3ccc(N)nc3)nc12` [8a-40, 6-amino-N-(8-methoxy-3-methyl-7-(2-(methylsulfonamido)ethoxy)-4-oxo-3,4-dihydroquinazoline-2-yl) nicotinamide], the IC50 in assay [1] was 20 to 200 nM; in assay [2] it was 20 to 200 nM; in assay [3] (Homo sapiens), below 20 nM; in assay [4], below 20 nM; in assay [5] (Homo sapiens), 20 to 200 nM; in assay [6] (Homo sapiens), 200 to 1000 nM. Also, in assay [4], the “Selectivity (PI3Kδ IC50/PI3KαIC50)” value is “II (“II” represents 5-10 times)”.

`CCn1c(NC(=O)c2cnc(N)nc2)nc2c(OC)c(OCC(N)=O)ccc2c1=O` [8b-2]: the IC50 in assay [1] was 20 to 200 nM; in assay [2] it was 20 to 200 nM; in assay [3] (Homo sapiens), below 20 nM; in assay [4], below 20 nM; in assay [5] (Homo sapiens) it was 20 to 200 nM; in assay [6] (Homo sapiens) it was 20 to 200 nM. Besides, the “Selectivity (PI3Kδ IC50/PI3KαIC50)” value in assay [4] is recorded as “III (“III” represents >10 times)”.

With `CCn1c(NC(=O)c2cnc(N)nc2)nc2c(OC)c(OCCS(N)(=O)=O)ccc2c1=O` [8b-11], the IC50 in assay [1] is below 20 nM; in assay [2], below 20 nM; in assay [3] (Homo sapiens), below 20 nM; in assay [4], below 20 nM; in assay [5] (Homo sapiens), 20 to 200 nM; in assay [6] (Homo sapiens), 20 to 200 nM. Besides, the “Selectivity (PI3Kδ IC50/PI3KαIC50)” value in assay [4] is given as “II (“II” represents 5-10 times)”.

As for `CCn1c(NC(=O)c2cnc(N)nc2)nc2c(OC)c(OC[C@@H](O)CN3CCOCC3)ccc2c1=O` [8b-27, (S)-2-amino-N-(3-ethyl-7-(2-hydroxy-3-morpholinopropoxy)-8-methoxy-4-oxo-3,4-dihydroquinazolin-2-yl) pyrimidine-5-carboxamide], the IC50 is 20 to 200 nM in assay [1]; 200 to 1000 nM in assay [2]; below 20 nM in assay [3] (Homo sapiens); below 20 nM in assay [4]; 20 to 200 nM in assay [5] (Homo sapiens); 200 to 1000 nM in assay [6] (Homo sapiens). In addition, in assay [4], the “Selectivity (PI3Kδ IC50/PI3KαIC50)” value is “II (“II” represents 5-10 times)”.

For the compound `CCn1c(NC(=O)c2cnc(N)nc2)nc2c(OC)c(OC[C@H](O)CN3CCOCC3)ccc2c1=O` [8b-28, (R)-2-amino-N-(3-ethyl-7-(2-hydroxy-3-morpholinopropoxy)-8-methoxy-4-oxo-3,4-dihydroquinazolin-2-yl) pyrimidine-5-carboxamide], the IC50 in assay [1] was 20 to 200 nM; in assay [2] it was 200 to 1000 nM; in assay [3] (Homo sapiens), below 20 nM; in assay [4] it was below 20 nM; in assay [5] (Homo sapiens), 20 to 200 nM; in assay [6] (Homo sapiens), 200 to 1000 nM. The “Selectivity (PI3Kδ IC50/PI3KαIC50)” value in assay [4] was “II (“II” represents 5-10 times)”.

In the case of `CCn1c(NC(=O)c2cnc(N)nc2)nc2c(OC)c(OCCNS(C)(=O)=O)ccc2c1=O` [8b-29, 2-amino-N-(3-ethyl-8-methoxy-7-(2-(methylsulfonamido)ethoxy)-4-oxo-3,4-dihydroquinazolin-2-yl) pyrimidine-5-carboxamide], the IC50 in assay [1] is 20 to 200 nM; in assay [2] it was 200 to 1000 nM; in assay [3] (Homo sapiens), below 20 nM; in assay [4] it was below 20 nM; in assay [5] (Homo sapiens), 20 to 200 nM; in assay [6] (Homo sapiens), 200 to 1000 nM. The “Selectivity (PI3Kδ IC50/PI3KαIC50)” value in assay [4] was “III (“III” represents >10 times)”.

Take `CCn1c(NC(=O)c2cnc(N)nc2)nc2c(OC)c(OCC(C)NS(C)(=O)=O)ccc2c1=O` (stereo not shown) [8b-30, 2-amino-N-(3-ethyl-8-methoxy-7-(2-(methylsulfonamido)propoxy)-4-oxo-3,4-dihydroquinazolin-2-yl) pyrimidine-5-carboxamide]: the IC50 in assay [1] is 20 to 200 nM; in assay [2], 200 to 1000 nM; in assay [3] it was below 20 nM; in assay [4] it was below 20 nM; in assay [5] it was 20 to 200 nM; in assay [6] it was 200 to 1000 nM. Further, the “Selectivity (PI3Kδ IC50/PI3KαIC50)” value in assay [4] was “II (“II” represents 5-10 times)”.

Consider `CCn1c(NC(=O)c2ccc(N)nc2)nc2c(OC)c(OC[C@@H](O)CN3CCOCC3)ccc2c1=O` [8b-46, (S)-6-amino-N-(3-ethyl-7-(2-hydroxy-3-morpholinopropoxy)-8-methoxy-4-oxo-3,4-dihydroquinazolin-2-yl) nicotinamide], for which the IC50 is 20 to 200 nM in assay [1]; 200 to 1000 nM in assay [2]; below 20 nM in assay [3] (Homo sapiens); below 20 nM in assay [4]; 20 to 200 nM in assay [5] (Homo sapiens); 200 to 1000 nM in assay [6] (Homo sapiens). In addition, the “Selectivity (PI3Kδ IC50/PI3KαIC50)” value in assay [4] is “II (“II” represents 5-10 times)”.

Regarding `CCn1c(NC(=O)c2ccc(N)nc2)nc2c(OC)c(OC[C@H](O)CN3CCOCC3)ccc2c1=O` [8b-47, (R)-6-amino-N-(3-ethyl-7-(2-hydroxy-3-morpholinopropoxy)-8-methoxy-4-oxo-3,4-dihydroquinazolin-2-yl) nicotinamide], the IC50 in assay [1] was 20 to 200 nM; in assay [2] it was 200 to 1000 nM; in assay [3] (Homo sapiens) it was below 20 nM; in assay [4], below 20 nM; in assay [5] (Homo sapiens), 20 to 200 nM; in assay [6] (Homo sapiens), 200 to 1000 nM. Also, the “Selectivity (PI3Kδ IC50/PI3KαIC50)” value in assay [4] is “II (“II” represents 5-10 times)”.

`CCn1c(NC(=O)c2ccc(N)nc2)nc2c(OC)c(OCC(=O)NCCN3CCOCC3)ccc2c1=O` [8b-48, 6-amino-N-(3-ethyl-8-methoxy-7-(2-((2-morpholinoethyl)amino)-2-oxoethoxy)-4-oxo-3,4-dihydroquinazolin-2-yl)nicotinamide]: the IC50 in assay [1] is 20 to 200 nM; in assay [2], 200 to 1000 nM; in assay [3] (Homo sapiens), below 20 nM; in assay [4] it was below 20 nM; in assay [5] (Homo sapiens) it was 20 to 200 nM; in assay [6] (Homo sapiens) it was 200 to 1000 nM. In addition, in assay [4], the “Selectivity (PI3Kδ IC50/PI3KαIC50)” value is on record as “II (“II” represents 5-10 times)”.
